Reference: PubChem BioAssay (NCI)
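Compound exposure: 48 hours, 5 concentrations, 96-well plates. GI50 is the concentration that inhibits growth by half. TGI denotes the concentration required for complete inhibition of growth.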

Key:
Experiment in all cases: NCI-60 cell line screen, 48 h
OVCAR-4 ovarian = test system: OVCAR-4 ovarian
OVCAR-3 ovarian = test system: OVCAR-3 ovarian
SK-MEL-5 melanoma = test system: SK-MEL-5 melanoma
CCRF-CEM leukemia = test system: CCRF-CEM leukemia
NCI/ADR-RES ovarian = test system: NCI/ADR-RES ovarian
LOX IMVI melanoma = test system: LOX IMVI melanoma
A498 renal = test system: A498 renal
NCI-H460 lung = test system: NCI-H460 lung
DU-145 prostate = test system: DU-145 prostate
SR leukemia = test system: SR leukemia
IGROV1 ovarian = test system: IGROV1 ovarian
K-562 leukemia = test system: K-562 leukemia
HCT-116 colon = test system: HCT-116 colon
OVCAR-5 ovarian = test system: OVCAR-5 ovarian
SK-MEL-28 melanoma = test system: SK-MEL-28 melanoma
MALME-3M melanoma = test system: MALME-3M melanoma
NCI-H226 lung = test system: NCI-H226 lung
HOP-62 NSCLC = test system: HOP-62 NSCLC
HS 578T breast = test system: HS 578T breast
RPMI-8226 leukemia = test system: RPMI-8226 leukemia
HT29 colon = test system: HT29 colon
MOLT-4 leukemia = test system: MOLT-4 leukemia
TK-10 renal = test system: TK-10 renal
M14 melanoma = test system: M14 melanoma
SNB-19 CNS = test system: SNB-19 CNS
NCI-H23 lung = test system: NCI-H23 lung
OVCAR-8 ovarian = test system: OVCAR-8 ovarian
EKVX NSCLC = test system: EKVX NSCLC
SF-295 CNS = test system: SF-295 CNS
ACHN renal = test system: ACHN renal
786-0 renal = test system: 786-0 renal
HOP-92 NSCLC = test system: HOP-92 NSCLC
UACC-257 melanoma = test system: UACC-257 melanoma
SW-620 colon = test system: SW-620 colon
SNB-75 CNS = test system: SNB-75 CNS
UACC-62 melanoma = test system: UACC-62 melanoma
NCI-H522 lung = test system: NCI-H522 lung
UO-31 renal = test system: UO-31 renal
SF-268 CNS = test system: SF-268 CNS
MDA-MB-231 breast = test system: MDA-MB-231 breast
HL-60(TB) leukemia = test system: HL-60(TB) leukemia
HCC-2998 colon = test system: HCC-2998 colon
SN12C renal = test system: SN12C renal
CAKI-1 renal = test system: CAKI-1 renal
A549 NSCLC = test system: A549 NSCLC
SK-MEL-2 melanoma = test system: SK-MEL-2 melanoma
MCF7 breast = test system: MCF7 breast
SK-OV-3 ovarian = test system: SK-OV-3 ovarian
HCT-15 colon = test system: HCT-15 colon
KM12 colon = test system: KM12 colon
COLO 205 colon = test system: COLO 205 colon
U251 CNS = test system: U251 CNS
RXF 393 renal = test system: RXF 393 renal
BT-549 breast = test system: BT-549 breast
MDA-MB-435 = test system: MDA-MB-435
SF-539 CNS = test system: SF-539 CNS
PC-3 prostate = test system: PC-3 prostate

## COc1ccc(C[C@H]2COC(=O)[C@@H]2Cc2ccc(O)cc2)cc1OC
OVCAR-4 ovarian
  TGI: > 100 µM
OVCAR-3 ovarian
  TGI: > 100 µM
SK-MEL-5 melanoma
  TGI: > 100 µM
CCRF-CEM leukemia
  TGI: > 100 µM
NCI/ADR-RES ovarian
  TGI: > 100 µM
LOX IMVI melanoma
  TGI: > 100 µM
A498 renal
  TGI: > 100 µM
NCI-H460 lung
  TGI: > 100 µM
DU-145 prostate
  TGI: > 100 µM
SR leukemia
  TGI: > 100 µM
IGROV1 ovarian
  TGI: > 100 µM
K-562 leukemia
  TGI: > 100 µM
HCT-116 colon
  TGI: > 100 µM
OVCAR-5 ovarian
  TGI: > 100 µM
SK-MEL-28 melanoma
  TGI: > 100 µM
MALME-3M melanoma
  TGI: > 100 µM
NCI-H226 lung
  TGI: > 100 µM
HOP-62 NSCLC
  TGI: > 100 µM
HS 578T breast
  TGI: > 100 µM
RPMI-8226 leukemia
  TGI: > 100 µM
HT29 colon
  TGI: > 100 µM
MOLT-4 leukemia
  TGI: > 100 µM
TK-10 renal
  TGI: > 100 µM
M14 melanoma
  TGI: > 100 µM
SNB-19 CNS
  TGI: > 100 µM
NCI-H23 lung
  TGI: > 100 µM
OVCAR-8 ovarian
  TGI: > 100 µM
EKVX NSCLC
  TGI: > 100 µM
SF-295 CNS
  TGI: > 100 µM
ACHN renal
  TGI: > 100 µM
786-0 renal
  TGI: > 100 µM
HOP-92 NSCLC
  TGI: > 100 µM
UACC-257 melanoma
  TGI: > 100 µM
SW-620 colon
  TGI: > 100 µM

## Cc1ccc2c(N/N=C\c3ccco3)cc(C)nc2n1
OVCAR-4 ovarian
  GI50: 2.99 µM
  TGI: 9.19 µM
SNB-75 CNS
  GI50: 11.4 µM
  TGI: 26.4 µM
OVCAR-3 ovarian
  GI50: 2.81 µM
  TGI: 7.49 µM
SK-MEL-5 melanoma
  GI50: 10.1 µM
  TGI: 22.3 µM
UACC-62 melanoma
  GI50: 1.81 µM
  TGI: 3.69 µM
CCRF-CEM leukemia
  GI50: 2.23 µM
  TGI: 6.37 µM
NCI-H522 lung
  GI50: 2.92 µM
  TGI: 9.84 µM
UO-31 renal
  GI50: 2 µM
  TGI: 5.24 µM
NCI/ADR-RES ovarian
  GI50: 6.25 µM
  TGI: 26.1 µM
SF-268 CNS
  GI50: 6.15 µM
  TGI: 20.5 µM
LOX IMVI melanoma
  GI50: 3.76 µM
  TGI: 14 µM
A498 renal
  GI50: 11 µM
  TGI: 23.9 µM
NCI-H460 lung
  GI50: 3.24 µM
  TGI: 11.8 µM
DU-145 prostate
  GI50: 6.79 µM
  TGI: 20.1 µM
SR leukemia
  GI50: 2.15 µM
  TGI: 6.07 µM
MDA-MB-231 breast
  GI50: 3.53 µM
  TGI: 13.5 µM
HL-60(TB) leukemia
  GI50: 1.99 µM
  TGI: 4.07 µM
IGROV1 ovarian
  GI50: 3.41 µM
  TGI: 14.8 µM
K-562 leukemia
  GI50: 3.02 µM
  TGI: 11.2 µM
HCC-2998 colon
  GI50: 2.7 µM
  TGI: 7.4 µM
SN12C renal
  GI50: 4.68 µM
  TGI: 16.5 µM
CAKI-1 renal
  GI50: 2.93 µM
  TGI: 12.8 µM
HCT-116 colon
  GI50: 2.95 µM
  TGI: 11 µM
OVCAR-5 ovarian
  GI50: 11.8 µM
  TGI: 26.3 µM
A549 NSCLC
  GI50: 4.37 µM
  TGI: 18.5 µM
SK-MEL-28 melanoma
  GI50: 2.11 µM
  TGI: 5.35 µM
NCI-H226 lung
  GI50: 20.1 µM
  TGI: 60.3 µM
HOP-62 NSCLC
  GI50: 10 µM
  TGI: 24.4 µM
SK-MEL-2 melanoma
  GI50: 3.05 µM
  TGI: 8.77 µM
HS 578T breast
  GI50: 5.83 µM
  TGI: 29.6 µM
MCF7 breast
  GI50: 3.28 µM
  TGI: 15.5 µM
RPMI-8226 leukemia
  GI50: 2.48 µM
  TGI: 7.06 µM
SK-OV-3 ovarian
  GI50: 8.74 µM
  TGI: 22.7 µM
HT29 colon
  GI50: 2.7 µM
  TGI: 8.95 µM
HCT-15 colon
  GI50: 2.89 µM
  TGI: 12 µM
MOLT-4 leukemia
  GI50: 2.67 µM
  TGI: 8.83 µM
M14 melanoma
  GI50: 2.05 µM
  TGI: 4.04 µM
KM12 colon
  GI50: 4.98 µM
  TGI: 17.9 µM
SNB-19 CNS
  GI50: 8.15 µM
  TGI: 24 µM
COLO 205 colon
  GI50: 1.88 µM
  TGI: 3.75 µM
U251 CNS
  GI50: 1.94 µM
  TGI: 7.06 µM
OVCAR-8 ovarian
  GI50: 5.7 µM
  TGI: 24 µM
RXF 393 renal
  GI50: 4.53 µM
  TGI: 17.1 µM
SF-295 CNS
  GI50: 3.31 µM
  TGI: 14.3 µM
ACHN renal
  GI50: 3.37 µM
  TGI: 12.4 µM
BT-549 breast
  GI50: 4.37 µM
  TGI: 14.9 µM
MDA-MB-435
  GI50: 2.63 µM
  TGI: 10.7 µM
SF-539 CNS
  GI50: 2.01 µM
  TGI: 3.74 µM
786-0 renal
  GI50: 2.25 µM
  TGI: 6.11 µM
PC-3 prostate
  GI50: 6.26 µM
  TGI: 22.5 µM
UACC-257 melanoma
  GI50: 2.79 µM
  TGI: 8.72 µM
SW-620 colon
  GI50: 3.01 µM
  TGI: 11.6 µM

## Oc1cccc(Cn2c(-c3cccc(O)c3O)nc3ccccc32)c1O
OVCAR-4 ovarian
  GI50: 5.2 µM
  TGI: > 100 µM
SNB-75 CNS
  GI50: 26.2 µM
  TGI: > 100 µM
OVCAR-3 ovarian
  GI50: 0.0683 µM
  TGI: 0.76 µM
SK-MEL-5 melanoma
  GI50: 5.76 µM
  TGI: 18.1 µM
UACC-62 melanoma
  GI50: 3.1 µM
  TGI: 12.6 µM
CCRF-CEM leukemia
  GI50: 7.56 µM
  TGI: > 100 µM
NCI-H522 lung
  GI50: 7.88 µM
  TGI: 49.1 µM
UO-31 renal
  GI50: 12.8 µM
  TGI: > 100 µM
NCI/ADR-RES ovarian
  GI50: 2.34 µM
  TGI: 8.69 µM
SF-268 CNS
  GI50: 4.74 µM
  TGI: 28.7 µM
LOX IMVI melanoma
  GI50: 2.84 µM
  TGI: 15.3 µM
A498 renal
  GI50: 17.6 µM
  TGI: 60.4 µM
NCI-H460 lung
  GI50: 3.59 µM
  TGI: 16.3 µM
DU-145 prostate
  GI50: 4.89 µM
  TGI: 20.5 µM
SR leukemia
  GI50: 3.42 µM
  TGI: > 100 µM
MDA-MB-231 breast
  GI50: 0.92 µM
  TGI: 7.71 µM
IGROV1 ovarian
  GI50: 34 µM
  TGI: > 100 µM
K-562 leukemia
  GI50: 5.56 µM
  TGI: > 100 µM
HCC-2998 colon
  GI50: 11 µM
  TGI: 30 µM
SN12C renal
  GI50: 3.4 µM
  TGI: 16.3 µM
CAKI-1 renal
  GI50: 2.26 µM
  TGI: 5.85 µM
HCT-116 colon
  GI50: 2.24 µM
  TGI: 10.9 µM
OVCAR-5 ovarian
  GI50: 10.9 µM
  TGI: 48.1 µM
A549 NSCLC
  GI50: 14.1 µM
  TGI: 40.9 µM
SK-MEL-28 melanoma
  GI50: 10.9 µM
  TGI: 27.6 µM
NCI-H226 lung
  GI50: 3.95 µM
  TGI: 21.9 µM
HOP-62 NSCLC
  GI50: 3.77 µM
  TGI: 38.7 µM
SK-MEL-2 melanoma
  GI50: 42 µM
  TGI: > 100 µM
HS 578T breast
  GI50: 26.9 µM
  TGI: > 100 µM
MCF7 breast
  GI50: 1.44 µM
  TGI: 13.8 µM
RPMI-8226 leukemia
  GI50: 9.69 µM
  TGI: > 100 µM
SK-OV-3 ovarian
  GI50: 13.9 µM
  TGI: 75.4 µM
HT29 colon
  GI50: 15.5 µM
  TGI: > 100 µM
HCT-15 colon
  GI50: 2.08 µM
  TGI: 14.9 µM
MOLT-4 leukemia
  GI50: 3.21 µM
  TGI: > 100 µM
TK-10 renal
  GI50: 1.88 µM
  TGI: 7.52 µM
M14 melanoma
  GI50: 3.3 µM
  TGI: 15.5 µM
KM12 colon
  GI50: 8.62 µM
  TGI: 30.2 µM
SNB-19 CNS
  GI50: 13.8 µM
  TGI: > 100 µM
NCI-H23 lung
  GI50: 3.02 µM
  TGI: 14.1 µM
COLO 205 colon
  GI50: 11.7 µM
  TGI: 32.2 µM
U251 CNS
  GI50: 4.44 µM
  TGI: 26.2 µM
OVCAR-8 ovarian
  GI50: 11.7 µM
  TGI: 53.1 µM
RXF 393 renal
  GI50: 5.82 µM
  TGI: 25.4 µM
SF-295 CNS
  GI50: 1.88 µM
  TGI: 10.5 µM
ACHN renal
  GI50: 2.57 µM
  TGI: 11.8 µM
BT-549 breast
  GI50: 18.9 µM
  TGI: 81.1 µM
MDA-MB-435
  GI50: 2.13 µM
  TGI: 15.3 µM
SF-539 CNS
  GI50: 9.49 µM
  TGI: 38.4 µM
786-0 renal
  GI50: 1.86 µM
  TGI: 14.1 µM
HOP-92 NSCLC
  GI50: 36.8 µM
  TGI: > 100 µM
PC-3 prostate
  GI50: 6.69 µM
  TGI: 34.2 µM
UACC-257 melanoma
  GI50: 19.3 µM
  TGI: 50.1 µM
SW-620 colon
  GI50: 6.82 µM
  TGI: 60.1 µM
